Reference: US8022217B2, “Compounds suitable as modulators of HDL” (Cadila Healthcare Limited, priority 2006, dated 2011)
Counter-ions that a name gives are not always drawn.

The compounds below were run against T1, recombinant CETP (Homo sapiens, UniProt P11597) (assay: CETP in-vitro assay (Scintillation Proximity Assay, transfer of [3H] cholesteryl ester from HDL to biotinylated LDL)). Conditions: CETP inhibition in human plasma.
T1 sequence (P11597 18-493): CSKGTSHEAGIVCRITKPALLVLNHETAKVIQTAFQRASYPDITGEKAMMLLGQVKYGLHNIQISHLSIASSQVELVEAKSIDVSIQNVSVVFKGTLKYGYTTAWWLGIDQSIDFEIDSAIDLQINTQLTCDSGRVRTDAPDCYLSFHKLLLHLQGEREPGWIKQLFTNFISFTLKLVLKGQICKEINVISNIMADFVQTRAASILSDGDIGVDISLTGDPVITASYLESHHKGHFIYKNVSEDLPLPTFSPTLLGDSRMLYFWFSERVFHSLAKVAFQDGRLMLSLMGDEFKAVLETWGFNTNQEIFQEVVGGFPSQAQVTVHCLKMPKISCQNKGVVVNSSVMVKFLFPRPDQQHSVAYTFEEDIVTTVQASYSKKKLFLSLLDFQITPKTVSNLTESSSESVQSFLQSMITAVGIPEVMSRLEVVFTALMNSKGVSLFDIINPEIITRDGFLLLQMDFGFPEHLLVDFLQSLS
Assay type: biochemical
For CC(C)(C)c1ccc(CN(CCc2ccc(Cl)c(Cl)c2)C(=O)c2cc(F)cc3c2NCCC3)cc1.Cl [Compound 50, 6-Fluoro-1,2,3,4-tetrahydro-quinoline-8-carboxylic acid (4-tert-butyl-benzyl)-[2-(3,4-dichloro-phenyl)-ethyl]-amide; hydrochloride salt], the IC50 was 30 nM.
Work on CC(C)(C)c1ccc(CN(CCc2ccc(O[Si](C)(C)C)cc2)C(=O)c2cccc3c2NCCC3)cc1 [Compound 47, 1,2,3,4-Tetrahydro-quinoline-8-carboxylic acid (4-tert-butyl-benzyl)-[2-(4-trimethylsilanyloxy-phenyl)-ethyl]-amide] yielded an IC50 of 167 nM.
CC(C)(C)c1ccc(CN(CCc2ccccc2F)C(=O)c2cccc3c2NCCC3)cc1 [Compound 22, 1,2,3,4-Tetrahydro-quinoline-8-carboxylic acid (4-tert-butyl-benzyl)-[2-(2-fluoro-phenyl)-ethyl]-amide] was tested, and the IC50 was 455 nM.

These compounds were tested against T1, recombinant CETP in the same assay as above. Conditions: not given.
Assay type: biochemical
Protocol: This assay used a commercially available Scintillation Proximity Assay kit (Amersham TRKQ7015) with modifications for measuring CETP activity. [^3H] Cholesteryl ester HDL was mixed with non radioactive HDL prepared from human plasma at an appropriate ratio in order to ensure a proper transfer of cholesteryl esters. Transfer of [^3H] Cholesteryl esters from high density lipoprotein (HDL) to biotinylated low density lipoprotein (LDL) was measured following incubation of donor and acceptor particles in the presence of recombinant CETP. Following overnight incubation, the reaction was terminated and transfer was measured in a single step addition of streptavidin coated beads formulated in an assay terminal buffer. The rate of increase in signal was proportional to the transfer of [^3H] Cholesteryl ester by CETP.
In the case of CC(C)(C)c1ccc(CN(CCc2ccc(Cl)c(Cl)c2)C(=O)c2cc(F)cc3c2NCCC3)cc1.Cl [Compound 50, 6-Fluoro-1,2,3,4-tetrahydro-quinoline-8-carboxylic acid (4-tert-butyl-benzyl)-[2-(3,4-dichloro-phenyl)-ethyl]-amide; hydrochloride salt], the “% of CETP inhibition at 10 μmole concentration” value is reported as 90%.

Same assay, conditions: 10 μmole concentration
Compound Cc1cc2c(c(C(=O)N(CCc3ccc(F)cc3)Cc3ccc(C(C)(C)C)cc3)c1)NCCC2 [Compound 13, 6-Methyl-1,2,3,4-tetrahydro-quinoline-8-carboxylic acid (4-tert-butyl-benzyl)-[2-(4-fluoro-phenyl)-ethyl]-amide] has an inhibition at 10 µM of 80%.
CC(C)(C)c1ccc(CN(CCc2ccc(F)c(F)c2)C(=O)c2cc(Cl)cc3c2NCCC3)cc1 [Compound 40, 6-Chloro-1,2,3,4-tetrahydro-quinoline-8-carboxylic acid (4-tert-butyl-benzyl)-[2-(3,4-difluoro-phenyl)-ethyl]-amide] was tested, and the inhibition at 10 µM was 89%.
With CC(C)(C)c1ccc(CN(CCc2ccc(Cl)c(Cl)c2)C(=O)c2cc(Cl)cc3c2NCCC3)cc1 [Compound 35, 6-Chloro-1,2,3,4-tetrahydro-quinoline-8-carboxylic acid (4-tert-butyl-benzyl)-[2-(3,4-dichloro-phenyl)-ethyl]-amide] the inhibition at 10 µM was 85%.
With COc1ccc(CCN(Cc2ccc(C(C)(C)C)cc2)C(=O)c2cccc3c2NCCC3)cc1OC [Compound 43, 1,2,3,4-Tetrahydro-quinoline-8-carboxylic acid (4-tert-butyl-benzyl)-[2-(3,4-dimethoxy-phenyl)-ethyl]-amide] the inhibition at 10 µM was 80%.
With CC(C)(C)c1ccc(CN(CCc2ccc(F)cc2)C(=O)c2cc(F)cc3c2NCCC3)cc1 [Compound 24, 6-Fluoro-1,2,3,4-tetrahydro-quinoline-8-carboxylic acid (4-tert-butyl-benzyl)-[2-(4-fluoro-phenyl)-ethyl]-amide] the inhibition at 10 µM was 76%.
Compound Cc1cc2c(c(C(=O)N(CCc3ccc(Cl)c(Cl)c3)Cc3ccc(C(C)(C)C)cc3)c1)NCCC2 [Compound 31, 6-Methyl-1,2,3,4-tetrahydro-quinoline-8-carboxylic acid (4-tert-butyl-benzyl)-[2-(3,4-dichloro-phenyl)-ethyl]-amide] has an inhibition at 10 µM of 82%.
With CC(C)(C)c1ccc(CN(CCc2ccc(F)cc2)C(=O)c2ccc(Cl)c3c2NCCC3)cc1 [Compound 7, 5-Chloro-1,2,3,4-tetrahydro-quinoline-8-carboxylic acid (4-tert-butyl-benzyl)-[2-(4-fluoro-phenyl)-ethyl]-amide] the inhibition at 10 µM was 67%.
Work on CC(C)(C)c1ccc(CN(CCc2cccc(Cl)c2)C(=O)c2cccc3c2NCCC3)cc1 [Compound 10, 1,2,3,4-Tetrahydro-quinoline-8-carboxylic acid (4-tert-butyl-benzyl)-[2-(3-chloro-phenyl)-ethyl]-amide] yielded an inhibition at 10 µM of 57%.
With CCN(CC)c1ccc(CCN(Cc2ccc(C(C)(C)C)cc2)C(=O)c2cccc3c2NCCC3)cc1 [Compound 28, 1,2,3,4-Tetrahydro-quinoline-8-carboxylic acid (4-tert-butyl-benzyl)-[2-(4-diethylamino-phenyl)-ethyl]-amide] the inhibition at 10 µM was 80%.
Compound CC(C)(C)c1ccc(CN(CCc2ccc(Cl)c(F)c2)C(=O)c2cc(Cl)cc3c2NCCC3)cc1 [Compound 45, 6-Chloro-1,2,3,4-tetrahydro-quinoline-8-carboxylic acid (4-tert-butyl-benzyl)-[2-(4-chloro-3-fluoro-phenyl)-ethyl]-amide] has an inhibition at 10 µM of 88%.
In the case of O=C(c1cccc2c1NCCC2)N(CCc1ccc(F)cc1)Cc1ccc(C(F)(F)F)cc1 [Compound 14, 1,2,3,4-Tetrahydro-quinoline-8-carboxylic acid [2-(4-fluoro-phenyl)-ethyl]-(4-trifluoromethyl-benzyl)-amide], the inhibition at 10 µM is reported as 74%.
CC(C)(C)c1ccc(CN(CCc2ccc3c(c2)OCO3)C(=O)c2cccc3c2NCCC3)cc1 [Compound 38, 1,2,3,4-Tetrahydro-quinoline-8-carboxylic acid (2-benzo[1,3]dioxol-5-yl-ethyl)-(4-tert-butyl-benzyl)-amide] was tested, and the inhibition at 10 µM was 78%.
Work on CC(C)(C)c1ccc(CN(CCc2ccc(O)cc2)C(=O)c2cccc3c2NCCC3)cc1 [Compound 42, 1,2,3,4-Tetrahydro-quinoline-8-carboxylic acid (4-tert-butyl-benzyl)-[2-(4-hydroxy-phenyl)-ethyl]-amide] yielded an inhibition at 10 µM of 99%.
For CC(C)(C)c1ccc(CN(CCc2ccc(F)cc2)C(=O)c2cccc3c2NCCC3)cc1 [Compound 1, 1,2,3,4-Tetrahydro-quinoline-8-carboxylic acid (4-tert-butyl-benzyl)-(2-(4-fluoro-phenyl)-ethyl)-amide], the inhibition at 10 µM was 43%.
In the case of CC(C)(C)c1ccc(CN(CCc2cccc3ccccc23)C(=O)c2cccc3c2NCCC3)cc1 [Compound 37, 1,2,3,4-Tetrahydro-quinoline-8-carboxylic acid (4-tert-butyl-benzyl)-(2-naphthalen-1-yl-ethyl)-amide], the inhibition at 10 µM is reported as 86%.
In the case of CC(C)(C)c1ccc(CN(CCc2ccc(O[Si](C)(C)C)cc2)C(=O)c2cccc3c2NCCC3)cc1 [Compound 47, 1,2,3,4-Tetrahydro-quinoline-8-carboxylic acid (4-tert-butyl-benzyl)-[2-(4-trimethylsilanyloxy-phenyl)-ethyl]-amide], the inhibition at 10 µM is reported as 76%.
CC(C)(C)c1ccc(CN(CCc2ccc(Cl)c(Cl)c2)C(=O)c2cc(F)cc3c2NCCC3)cc1 [Compound 32, 6-Fluoro-1,2,3,4-tetrahydro-quinoline-8-carboxylic acid (4-tert-butyl-benzyl)-[2-(3,4-dichloro-phenyl)-ethyl]-amide] gave an inhibition at 10 µM of 82%.
Work on Cc1ccc(CN(CCc2ccc(Cl)c(Cl)c2)C(=O)c2cccc3c2NCCC3)cc1 [Compound 29, 1,2,3,4-Tetrahydro-quinoline-8-carboxylic acid [2-(3,4-dichloro-phenyl)-ethyl]-(4-methyl-benzyl)-amide] yielded an inhibition at 10 µM of 83%.
COc1ccc(CCN(Cc2ccc(C(C)(C)C)cc2)C(=O)c2cccc3c2NCCC3)cc1 [Compound 17, 1,2,3,4-Tetrahydro-quinoline-8-carboxylic acid (4-tert-butyl-benzyl)-[2-(4-methoxy-phenyl)-ethyl]-amide] showed an inhibition at 10 µM of 92%.
In the case of CC(C)(C)c1ccc(CN(CCc2ccc(Cl)c(Cl)c2)C(=O)c2cccc3c2NCCC3)cc1 [Compound 48, 1,2,3,4-Tetrahydro-quinoline-8-carboxylic acid (4-tert-butyl-benzyl)-[2-(3,4-dichloro-phenyl)-ethyl]-amide; hydrochloride salt], the inhibition at 10 µM is reported as 79%.
CC(C)(C)c1ccc(CN(Cc2cccc(Cl)c2)C(=O)c2cccc3c2NCCC3)cc1 [Compound 21, 1,2,3,4-Tetrahydro-quinoline-8-carboxylic acid (4-tert-butyl-benzyl)-(3-chloro-benzyl)-amide] was tested, and the inhibition at 10 µM was 77%.
Work on CC(C)(C)c1ccc(CN(CCc2ccccc2F)C(=O)c2cccc3c2NCCC3)cc1 [Compound 22, 1,2,3,4-Tetrahydro-quinoline-8-carboxylic acid (4-tert-butyl-benzyl)-[2-(2-fluoro-phenyl)-ethyl]-amide] yielded an inhibition at 10 µM of 94%.
